The source of these data is publication PMC11253567, “Drug repurposing of pyrazolotriazine derivatives as potential anti-SARS-CoV-2 agents: in vitro and in silico studies” (BMC Chemistry, 2024).

“And” between values parts separate entries of the source, which are not always exact repeats. Equal values may be shown once. Read-outs that look alike come from different tables or passages of the source.

For series [1], the system named is VERO-E6 cells. The settings on record: African green monkey.
A short description of another series: in vitro. To be noted: African green monkey.
The test system of series [2] is SARS-CoV-2 (hCoV-19/Egypt/NRC-03/2020). The experiment in a line: Inhibitory concentration 50 (IC50) determination, crystal violet CPE assay in VERO-E6 cells. The settings on record: for IC50: 50% reduction of virus-induced CPE.
For series [3] the test system is unchanged. The settings on record: cited from earlier work.
Series [4] has as its system VERO-E6 cells. To be noted: cited from earlier work.
[5] abbreviates: Severe acute respiratory syndrome coronavirus 2, Vero C1008, SARS-CoV-2 in VERO-E6 cells.
Where [6] appears, read: standard reference drug, SARS-CoV-2.

Consider `CCOC(=O)c1cnn2c(-c3ccc(Cl)cc3)nc(NCc3ccccc3)nc12` [Compound 3], for which the figures for the CC50 in the series on VERO-E6 cells [1] and in the series “in vitro” were 88 µM and 88.1 µM, respectively. Besides, the IC50 in series [2] (SARS-CoV-2 in VERO-E6 cells) and in series [2] (setting [5]) was 17.8 µM each time. Further, in series [2], the “SI (CC50/IC50)” value was 4.9.

With `NC(=O)c1nc(F)c[nH]c1=O` [Favipiravir], in series [3] (setting [6]), the IC50 was 1380 µM. Also, the “SI (CC50/IC50)” value in series [3] (standard reference drug) is on record as 3.8. The CC50 with VERO-E6 cells [4] is 5260 µM.

In “in vitro”, `CCOC(=O)c1cnn2c(-c3ccc(Cl)cc3)nc(N3CCCCC3)nc12` [Compound 5] returned a CC50 of 87.5 µM. In addition, the “SI (CC50/IC50)” value in series [2] stood at 31.2. The compound further showed an IC50 in series [2] (setting [5]) of 2.8 µM.

On to `O=C(NCCc1ccccc1)c1cnn2c(-c3ccc(Cl)cc3)nc(NCCc3ccccc3)nc12` [Compound 10], for which the CC50 in the series “in vitro” came out at 343 µM. Also, the IC50 in series [2] (SARS-CoV-2 in VERO-E6 cells) worked out at 60.7 µM; in series [2] (setting [5]) it was 60.8 µM. In series [2], the “SI (CC50/IC50)” value was determined as 5.6.

With `CCN(CC)CCCC(C)Nc1ccnc2cc(Cl)ccc12` (stereo not drawn) [Chloroquine], the IC50 in series [3] (setting [6]) was 24.9 µM.

`CCOC(=O)c1cnn2c(-c3ccc(Br)cc3)nc(N3CCCC3)nc12` [Compound 7] displayed a CC50 in “in vitro” of 279 µM. The “SI (CC50/IC50)” value in series [2] is 10.6. The same compound yielded an IC50 in series [2] (setting [5]) of 26.1 µM.

In turn, `CCOC(=O)c1cnn2c(-c3ccc(Br)cc3)nc(NCc3ccccc3)nc12` [Compound 2] returned a CC50 in “in vitro” of 445 µM. Further, the IC50 in series [2] (SARS-CoV-2 in VERO-E6 cells) and in series [2] (setting [5]) was 11.2 µM throughout. In series [2], the “SI (CC50/IC50)” value amounted to 39.7.

Take `CCN(CCO)CCCC(C)Nc1ccnc2cc(Cl)ccc12` (stereo not drawn) [Hydroxy-chloroquine, Hydroxychloroquine]: the IC50 in series [3] (setting [6]) was 36.9 µM. The “SI (CC50/IC50)” value in series [3] (standard reference drug) is on record as 9.7. For the same compound, in the series with VERO-E6 cells [4] (standard reference drug), the CC50 was 356 µM.

Turning to `CCOC(=O)c1cnn2c(-c3ccccc3)nc(N3CCCCC3)nc12` [Compound 4], in “in vitro”, the CC50 stood at 366 µM. In addition, the IC50 came out at 61.8 µM in series [2] (SARS-CoV-2 in VERO-E6 cells) and 61.9 µM in series [2] (setting [5]). Besides, the “SI (CC50/IC50)” value in series [2] was 5.9.

As for `CCOC(=O)c1cnn2c(-c3ccccc3)nc(NCCc3ccccc3)nc12` [Compound 6], the “SI (CC50/IC50)” value in series [2] was 2.5.

For the compound `O=C(NCc1ccccc1)c1cnn2c(-c3ccccc3)nc(NCc3ccccc3)nc12` [Compound 8], the CC50 in the series “in vitro” amounted to 400 µM. For the same compound, the IC50 in series [2] (SARS-CoV-2 in VERO-E6 cells) was 55 µM; in series [2] (setting [5]) it was 55.1 µM. In addition, the “SI (CC50/IC50)” value in series [2] was found to be 7.2.

In the series “in vitro”, `CCOC(=O)c1cnn2c(-c3ccccc3)nc(NCc3ccccc3)nc12` [Compound 1] showed a CC50 of 463 µM. In addition, the results for the IC50 in series [2] (SARS-CoV-2 in VERO-E6 cells) and in series [2] (setting [5]) were 2.4 µM and 2.45 µM, respectively. Moreover, the “SI (CC50/IC50)” value in series [2] was 190 and 192.8.

Turning to `CCC(CC)COC(=O)[C@H](C)N[P@](=O)(OC[C@H]1O[C@@](C#N)(c2ccc3c(N)ncnn23)[C@H](O)[C@@H]1O)Oc1ccccc1` [Remdesivir], the IC50 in series [3] (reference drug) is 3.38 µM. Besides, the CC50 with VERO-E6 cells [4] (reference drug) is 58.1 µM.

Consider `O=C(NCCc1ccccc1)c1cnn2c(-c3ccccc3)nc(NCCc3ccccc3)nc12` [Compound 9], for which the CC50 in the series “in vitro” is 578 µM. For the same compound, the IC50 in series [2] (SARS-CoV-2 in VERO-E6 cells) and in series [2] (setting [5]) was 44.2 µM in each case. Moreover, the “SI (CC50/IC50)” value in series [2] worked out at 13.0.
